Laboratory results: the Deep4Chem optical property database
Each block holds one compound with its values, some of them ahead of it.

Assay: solvent given as SMILES

SMILES: N#Cc1cc2ccc([O-])cc2oc1=O
fluorescence lifetime (in O): 3.96 ns

SMILES: COc1ccc(C2=C3C(C)=CC(C)=[N+]3[B-](F)(F)n3c(/C=C/c4ccc(N(C)C)cc4)cc(C)c32)cc1
fluorescence lifetime (in C1CCCCC1): 3.5 ns
fluorescence lifetime (in C1CCOC1): 3 ns
fluorescence lifetime (in C1COCCO1): 3.43 ns
fluorescence lifetime (in CC#N): 1.2 ns
fluorescence lifetime (in CC(C)=O): 2.23 ns
fluorescence lifetime (in CCC#N): 1.84 ns
fluorescence lifetime (in CCCC#N): 2.26 ns
fluorescence lifetime (in CCCCO): 2.45 ns
fluorescence lifetime (in CCOC(C)=O): 3.31 ns
fluorescence lifetime (in CCOCC): 3.74 ns
fluorescence lifetime (in CO): 0.85 ns
fluorescence lifetime (in Cc1ccccc1): 3.25 ns
fluorescence lifetime (in ClC(Cl)Cl): 3.47 ns

SMILES: COc1ccc(C#Cc2ccc(C#N)cc2)cc1
fluorescence lifetime (in C1COCCO1): 0.33 ns
fluorescence lifetime (in CC#N): 0.76 ns
fluorescence lifetime (in CCCCCC): 0.34 ns
fluorescence lifetime (in CCCCCCC): 0.35 ns
fluorescence lifetime (in CCCO): 0.6 ns
fluorescence lifetime (in CCOC(C)=O): 0.38 ns
fluorescence lifetime (in CS(C)=O): 1.1 ns
fluorescence lifetime (in ClC(Cl)Cl): 0.38 ns
fluorescence lifetime (in ClCCl): 0.46 ns

SMILES: N#Cc1cc(C#N)c(-n2c3ccccc3c3ccccc32)cc1-n1c2ccccc2c2ccccc21
fluorescence lifetime (in Cc1ccccc1): 9 ns

SMILES: CCC(CC)n1c2ccccc2c2cc3c(cc21)c1ccccc1n3C(CC)CC
fluorescence lifetime (in ClC(Cl)Cl): 3.05 ns

SMILES: CC(=O)c1nc(-c2ccc(N(C)C)cc2)oc1C
fluorescence lifetime (in CC#N): 1.91 ns
fluorescence lifetime (in CCO): 1.66 ns
fluorescence lifetime (in CCOC(C)=O): 1.87 ns
fluorescence lifetime (in CCOCC): 1.64 ns
fluorescence lifetime (in ClCCl): 3.68 ns

SMILES: C(=C\c1ccc(/C=C/c2ccc(N(c3ccccc3)c3ccccc3)cc2)c2nsnc12)/c1ccc(N(c2ccccc2)c2ccccc2)cc1
fluorescence lifetime (in C1CCOC1): 4.53 ns
fluorescence lifetime (in CCOC(C)=O): 4.74 ns
fluorescence lifetime (in CN(C)C=O): 2.75 ns
fluorescence lifetime (in Cc1ccccc1): 4.29 ns
fluorescence lifetime (in ClC(Cl)Cl): 4.21 ns
fluorescence lifetime (in ClCCl): 4.1 ns

SMILES: CCCCCCCC[n+]1ccc(-c2cc[n+](CCCCCCCC)cc2)cc1
fluorescence lifetime (in CC#N): 1 ns

SMILES: CN(C)c1ccc(-c2cc(-c3ccc(C#N)cc3)nc(-c3ccccc3)n2)cc1
fluorescence lifetime (in ClC(Cl)Cl): 3.5 ns

SMILES: CC(=O)c1ccc(-c2cnc3nn4ccccc4c3n2)cc1
fluorescence lifetime (in C1CCOC1): 5.1 ns

SMILES: CC1(C)[C@@H]2[C@@H]1[C@]1(c3ccccc3)N=NC2(c2ccccc2)C2C3C=CC(C3)C21 (stereo partly specified)
fluorescence lifetime (in CC#N): 402 ns

SMILES: CC1=CC(C)=[N+]2C1=C(c1ccccc1)c1c(C)c(-c3cccs3)c(C)n1[B-]2(F)F
fluorescence lifetime (in Cc1ccccc1): 3.2 ns

SMILES: Cc1cc(C)c(B(c2ccc(C#Cc3cc4ccc5cc(C#Cc6ccc(B(c7c(C)cc(C)cc7C)c7c(C)cc(C)cc7C)cc6)cc6ccc(c3)c4c56)cc2)c2c(C)cc(C)cc2C)c(C)c1
fluorescence lifetime (in Cc1ccccc1): 58 ns

SMILES: CN(CC(O)c1cccc(O)c1)c1ccc([N+](=O)[O-])c(C2CC(c3cccc4ccccc34)=NN2c2ccccc2)c1 (stereo unspecified)
fluorescence lifetime (in C1CCCCC1): 1.14 ns
fluorescence lifetime (in C1CCOC1): 3.56 ns
fluorescence lifetime (in C1COCCO1): 3.58 ns
fluorescence lifetime (in CC#N): 3.95 ns
fluorescence lifetime (in CC(C)O): 3.42 ns
fluorescence lifetime (in CCOC(C)=O): 4.01 ns
fluorescence lifetime (in CCOCC): 2 ns
fluorescence lifetime (in CO): 3.01 ns
fluorescence lifetime (in Cc1ccccc1): 1.72 ns
fluorescence lifetime (in ClC(Cl)Cl): 2.8 ns
fluorescence lifetime (in O): 2.42 ns

Next, values leading:

fluorescence lifetime (in C1CCCCC1): 9.32 ns
fluorescence lifetime (in C1CCOC1): 23.6 ns
fluorescence lifetime (in CC#N): 19.8 ns
SMILES: Cc1ccc2nc3c(nc2c1)c(-c1ccccc1)nn3C

fluorescence lifetime (in ClCCl): 5.85 ns
SMILES: CCCCCCCCCCCCN1C(=O)c2c(c3ccc4cc(-c5ccc(N(C)C)cc5)c(OC)cc4c3c3c2ccc2cc(-c4ccc(N(C)C)cc4)c(OC)cc23)C1=O

fluorescence lifetime (in CCCCCC): 6.61 ns
fluorescence lifetime (in CO): 6.76 ns
fluorescence lifetime (in ClCCl): 6.23 ns
SMILES: CC1=C2C=CC(C)=[N+]2[B-](F)(F)n2cccc21

fluorescence lifetime (in CC#N): 0.0002 ns
SMILES: Cc1c[nH]c(=O)[nH]c1=O

fluorescence lifetime (in C1CCOC1): 6.5 ns
SMILES: c1ccc(/C(=C(\c2ccccc2)c2cc(-c3ccccc3)ccc2-c2ccccc2)c2cc(-c3ccccc3)ccc2-c2ccccc2)cc1

fluorescence lifetime (in ClCCl): 6.44 ns
SMILES: CCCCCCCCCCCCN1C(=O)c2c(c3ccc4cc(-c5ccc(OC)cc5)c(OC)cc4c3c3c2ccc2cc(-c4ccc(OC)cc4)c(OC)cc23)C1=O

fluorescence lifetime (in C1COCCO1): 0.415 ns
fluorescence lifetime (in CC(C)O): 0.399 ns
fluorescence lifetime (in CCCCCC): 0.211 ns
fluorescence lifetime (in CCCCCCC): 0.253 ns
fluorescence lifetime (in CCCCCCCC): 0.299 ns
fluorescence lifetime (in CCCCCCCCO): 0.463 ns
fluorescence lifetime (in CCO): 0.499 ns
fluorescence lifetime (in CO): 1.57 ns
SMILES: COc1ncccc1B(O)O
